Results from patent publication US20260306506A1, “PYRIDO[4,3-D]PYRIMIDINE COMPOUNDS” (Pfizer Inc., priority 2023, published 2026).

Experiments:
Format in all cases: cell-based
[1] = system: PANC08.13 (pancreatic cancer cell line); test: KRAS Cell Titer Glo (CTG) viability assay, Panc08.13; settings: Homo sapiens, PANC-08-13, 168 h, Panc08.13, 7-day; geometric mean when n>1
From the text: (§1) The CellTiter-Glo® (CTG) Luminescent Cell Viability Assay is a homogeneous method of determining the number of viable cells in culture based on quantitation of the ATP present, an indicator of metabolically active cells. The CTG is designed for use with multi-well formats, making it ideal for automated high-throughput screening (HTS), cell proliferation and cytotoxicity assays. The homogeneous assay procedure involves adding the single reagent (CellTiter-Glo® Reagent) directly to cells cultured in serum-supplemented medium. Cell washing, removal of medium and multiple pipetting steps are not required. The system detects as few as 15 cells per well in a 384-well format in 10 minutes after adding reagent and mixing.
(§2) Cells are grown in humidified 5% CO2 incubator at 37° C. using the culture conditions outlined below. All cell culture media reagents were purchased from Gibco. Cell lines purchased from ATCC: H358 (non-small cell lung cancer cell line), SW620 (colorectal cancer cell line), PANC08.13 (RPM11640+10% FBS+10 units/ml Insulin, pancreatic cancer cell line). Test and control compounds are dispensed as nanoliter drops according to desired final concentrations in 0.1% DMSO using Echo Acoustic Dispenser onto 384 assay plates (Corning, Cat #3764) prior to cell seeding. Cells were seeded in 40 μL volume per well at the following cell densities (cells per well): H358 (300), SW620 (750), PANC 08.13 (600). Cells are incubated in the presence of compound for 7-days. Viability is determined on Day 7 using CellTiter-Glo® (CTG) Luminescent Cell Viability Assay (Promega). CTG is added to a final volume of 20 μl per well and incubated at room temperature for 15 minutes before luminescence is captured using an EnVision Reader with LUM384 US protocol. Data is analyzed using Activity Base to determine compound response and will be represented either as a percent effect (PCTEFF) or percent control (PCTOCTL) as described: Zero percent effect control (ZPE) (Negative control)—100% DMSO. Hundred percent effect (HPE) (Positive control)—1 μM Trametinib (GSK1120212, MEK inhibitor) (4 nl of 10 mM and 36 nl of DMSO per well). The following equations/nomenclature are used (% Effect; PCTEFF) and (% of Control; PCTOCTL): PCTEFF: 100*(Raw_Data_Value−HPE/ZPE−HPE), PCTOCTL: 100*Raw_Data_Value/User_Defined_Array), where the User_Defined_Array is either summarized HPE or ZPE.

[2] = system: H358 (non-small cell lung cancer cell line); test: KRAS Cell Titer Glo (CTG) viability assay, H358; settings: H358, 7-day, geometric mean when n>1
From the text: as §1, §2

[3] = system: SW620 (colorectal cancer cell line); test: KRAS Cell Titer Glo (CTG) viability assay, SW620; settings: SW620, 7-day, geometric mean when n>1
From the text: as §1, §2

Row | IC50 [1] [nM] | IC50 ([2]; Homo sapiens, NCI-H358, 168 h) [nM] | IC50 ([3]; Homo sapiens, SW-620, 168 h) [nM] | IC50 [2] [nM] | IC50 [3] [nM] | Structure (SMILES)
1 | 1.2 | 74 | 46 | – | – | C#Cc1c(F)ccc2cc(O)cc(-c3nc4c5c(nc(OC[C@@]67CCCN6C[C@H](F)C7)nc5c3F)N3CCCC[C@H]3CO4)c12 [Example 23, 5-ethynyl-6-fluoro-4-[(8aS)-4-fluoro-2-{[(2R,7aS)-2-fluorotetrahydro-1H-pyrrolizin-7a(5H)-yl]methoxy}-8,8a,9,10,11,12-hexahydro-7-oxa-1,3,6,12a-tetraazabenzo[4,5]cyclohepta[1,2,3-de]naphthalen-5-yl]naphthalen-2-ol]
2 | 2.1 | – | – | 48 | 45 | C#Cc1c(F)c(F)cc2cc(O)cc(-c3nc4c5c(nc(OC[C@@]67CCCN6C[C@H](F)C7)nc5c3F)N3CCCC[C@H]3CO4)c12 [Example 32, 5-ethynyl-6,7-difluoro-4-[(8aS)-4-fluoro-2-{[(2R,7aS)-2-fluorotetrahydro-1H-pyrrolizin-7a(5H)-yl]methoxy}-8,8a,9,10,11,12-hexahydro-7-oxa-1,3,6,12a-tetraazabenzo[4,5]cyclohepta[1,2,3-de]naphthalen-5-yl]naphthalen-2-ol]
3 | 121 | 493 | 871 | – | – | C#Cc1c(F)ccc2cc(O)cc(-c3ncc4c(N5CCC[C@@H](CC#N)C5)nc(OC[C@@]56CCCN5C[C@H](F)C6)nc4c3F)c12 [Example 15, {(3S)-1-[7-(8-ethynyl-7-fluoro-3-hydroxynaphthalen-1-yl)-8-fluoro-2-{[(2R,7aS)-2-fluorotetrahydro-1H-pyrrolizin-7a(5H)-yl]methoxy}pyrido[4,3-d]pyrimidin-4-yl]piperidin-3-yl}acetonitrile]
4 | 45.2 | 142 | 164 | – | – | Oc1cc(-c2ncc3c(N4C[C@@H]5C[C@H](C4)[C@H](O)C5)nc(OC[C@@]45CCCN4C[C@H](F)C5)nc3c2F)c2c(Cl)cccc2c1 [Example 20, (1R,5R,6R)-3-[7-(8-chloro-3-hydroxynaphthalen-1-yl)-8-fluoro-2-{[(2R,7aS)-2-fluorotetrahydro-1H-pyrrolizin-7a(5H)-yl]methoxy}pyrido[4,3-d]pyrimidin-4-yl]-3-azabicyclo[3.2.1]octan-6-ol]

Continued, compound first:

Row | Structure (SMILES) | IC50 [1] [nM] | IC50 ([2]; Homo sapiens, NCI-H358, 168 h) [nM] | IC50 ([3]; Homo sapiens, SW-620, 168 h) [nM] | IC50 [2] [nM] | IC50 [3] [nM]
5 | C#Cc1c(F)ccc2cc(O)cc(-c3ncc4c(N5C[C@@H]6C[C@H](C5)[C@H](O)C6)nc(OC[C@@]56CCCN5C[C@H](F)C6)nc4c3F)c12 [Example 10, (1R,5R,6R)-3-[7-(8-ethynyl-7-fluoro-3-hydroxynaphthalen-1-yl)-8-fluoro-2-{[(2R,7aS)-2-fluorotetrahydro-1H-pyrrolizin-7a(5H)-yl]methoxy}pyrido[4,3-d]pyrimidin-4-yl]-3-azabicyclo[3.2.1]octan-6-ol] | 8.15 | 26.9 | 35.7 | – | –
6 | Oc1cc(-c2ncc3c(N4C[C@@H]5C[C@H](C4)[C@H](O)C5)nc(OC[C@@]45CCCN4C[C@H](F)C5)nc3c2F)c2c(F)c(F)ccc2c1 [Example 14, (1R,5R,6R)-3-[7-(7,8-difluoro-3-hydroxynaphthalen-1-yl)-8-fluoro-2-{[(2R,7aS)-2-fluorotetrahydro-1H-pyrrolizin-7a(5H)-yl]methoxy}pyrido[4,3-d]pyrimidin-4-yl]-3-azabicyclo[3.2.1]octan-6-ol] | 10.8 | 41.6 | 35.3 | – | –
7 | C#Cc1cccc2cc(O)cc(-c3ncc4c(N5C[C@@H]6C[C@H](C5)[C@H](O)C6)nc(OC[C@@]56CCCN5C[C@H](F)C6)nc4c3F)c12 [Example 9, (1R,5R,6R)-3-[7-(8-ethynyl-3-hydroxynaphthalen-1-yl)-8-fluoro-2-{[(2R,7aS)-2-fluorotetrahydro-1H-pyrrolizin-7a(5H)-yl]methoxy}pyrido[4,3-d]pyrimidin-4-yl]-3-azabicyclo[3.2.1]octan-6-ol] | 12.3 | 112 | 166 | – | –
